From PubChem BioAssay (NCI) come the findings set out here.

Each structure is given as a SMILES string.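 In this assay, cells in 96-well plates receive the compound at five concentrations for 48 hours. Endpoints are linearly interpolated between the surrounding concentrations. TGI: concentration producing complete growth inhibition.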 Some results are limits rather than exact numbers.

Test in all cases: growth of human tumour cells (NCI), 48 h
Assay [1] relates to UACC-257 melanoma.
For assay [2], the system named is HT29 colon.
Assay [3] deals with HCT-15 colon.
Assay [4] relates to RPMI-8226 leukemia.
For assay [5], the system named is NCI-H460 lung.
For assay [6], the system named is A549 NSCLC.
In assay [7] the test system is SK-MEL-28 melanoma.
Assay [8] deals with SR leukemia.
The test system of assay [9] is 786-0 renal.
Assay [10] relates to SF-539 CNS.
Assay [11] concerns UO-31 renal.
Assay [12] has as its system SN12C renal.
For assay [13], the system named is CAKI-1 renal.
In assay [14] the test system is MALME-3M melanoma.
Assay [15] has as its system SK-OV-3 ovarian.
In assay [16] the test system is IGROV1 ovarian.
For assay [17], the system named is UACC-62 melanoma.
In assay [18] the test system is DU-145 prostate.

`Nc1ccc2ncc(Nc3ccc(F)cc3)nc2c1`: the TGI in [1], in [2], in assay [3], in [4], in assay [5] and in assay [6] was above 100 µM in each case. In addition, the TGI in [7], in assay [8], in assay [9], in assay [10], in assay [11] and in assay [12] was above 100 µM each time. The TGI in [13] and in [14] was above 100 µM throughout.
With `CC(OC1CC(=O)CC2C(=O)C=CC(=O)C12)c1ccccc1` (stereo not given), the TGI is 35.4 µM in assay [1]; above 56.2 µM in assay [15]; 33 µM in assay [2]; 31.4 µM in [16]; 31.4 µM in [3]; 58.5 µM in assay [4]. Further, the TGI in [5] was above 59.4 µM; in assay [6], 40.2 µM; in assay [7], 36.4 µM; in [8], 42.8 µM; in assay [9] it was 26.9 µM; in assay [10], 34.5 µM. In addition, the TGI in assay [11] is 29.5 µM; in assay [12], 33.2 µM; in [13], 31.9 µM; in assay [17], 29.7 µM; in assay [14], 34.9 µM.
In the case of `CC1=C(C(=O)NNC(=O)C(N)=O)CC(C(=O)NNC(=O)C(N)=O)=C(C)N1`, the TGI in [1], in assay [15], in [2], in assay [16], in [3] and in assay [4] was above 100 µM in each case. For the same compound, the TGI in assay [5], in [6], in assay [7], in assay [8], in assay [9] and in assay [10] was above 100 µM in each case. Moreover, the TGI in [18], in [11], in [12], in [13] and in assay [17] was above 100 µM in each case.
Consider `Cc1cc(S(=O)(=O)Nc2nc3ccccc3[nH]2)c(S)cc1Cl`, for which the TGI in assay [1], in assay [15], in [2], in assay [16], in assay [3] and in [4] was above 100 µM each time. Moreover, the TGI was above 100 µM in [5]; above 100 µM in [6]; 73.5 µM in assay [7]; above 100 µM in assay [8]; above 100 µM in assay [9]; above 100 µM in assay [10]. The TGI in [18], in assay [11], in assay [12], in assay [13] and in assay [17] was above 100 µM in each case.
With `Nc1nc(N)c2ncn(-c3ccc(Cl)c(Cl)c3)c2n1`, the TGI in assay [1] was 57.9 µM; in assay [15], above 100 µM; in assay [2] it was 58.1 µM; in [16], 64.6 µM; in [3] it was above 100 µM; in assay [4] it was 75.2 µM. The TGI in assay [6] is above 100 µM; in assay [7] it was above 100 µM; in assay [9], 27.5 µM; in assay [10], 67.6 µM; in assay [18], above 100 µM; in assay [11], 59.2 µM. Moreover, the TGI in [12] is 61.7 µM; in assay [13] it was above 100 µM; in assay [17], 43 µM; in [14], 49.2 µM.
In the case of `CCCCCCCCCCCCC/C=C1\C[C@H](O)COC1=O`, the TGI in [1] was 28.4 µM; in assay [15], 35.1 µM; in assay [2] it was 30.6 µM; in assay [16], 32.3 µM; in assay [3] it was 32.2 µM; in [4], 41 µM. Also, the TGI was determined as 33.4 µM in [5]; 38.7 µM in assay [6]; 30.3 µM in assay [7]; 51.2 µM in assay [8]; 29.5 µM in [9]; 35.8 µM in assay [10]. Also, the TGI in assay [11] came to 32.6 µM; in [12] it was 28.8 µM; in assay [13], 32.9 µM; in [17] it was 26.8 µM; in assay [14], 35.5 µM.
As to `CN(C(=O)[C@@H](NC(=O)OC(C)(C)C)c1ccccc1)[C@H]1CCCC[C@@H]1N1CCCC1`, the TGI in assay [1], in assay [15], in [2], in [16], in assay [3] and in [4] was above 100 µM throughout. The TGI in assay [6], in [7], in assay [8], in assay [9], in assay [10] and in [18] was above 100 µM in each case. For the same compound, the TGI in assay [11], in assay [12], in assay [13] and in [17] was above 100 µM throughout.
On to `CN/C=C(/c1ccc(OC)cc1)C(O)c1ccc(OC)c(OC)c1` (stereo not given), for which the TGI in assay [1], in assay [15], in [2], in assay [16], in [3] and in assay [4] was above 100 µM throughout. For the same compound, the TGI in assay [5], in [6], in [7], in assay [8], in [9] and in [10] was above 100 µM throughout. The TGI in assay [11], in assay [12], in [17] and in assay [14] was above 100 µM throughout.
